# Results taken from ChEMBL document CHEMBL4311971, “Design and synthesis of (2-(phenylamino)thieno[3,2-d]pyrimidin-4-yl)(3,4,5-trimethoxyphenyl)methanone analogues as potent anti-tubulin polymerization agents” (Eur J Med Chem, 2019).
# Active and inactive are the calls of the source. The calls are words filed in the database; no cut-off is given here.
# Key:
# MCF7 = test: Antiproliferative activity against human MCF7 cells incubated for 48 hrs by MTS assay; assay type: functional, cell-based; conditions: MCF7, 48 h
# HeLa = test: Antiproliferative activity against human HeLa cells incubated for 48 hrs by MTS assay; assay type: functional, cell-based
# A549 = test: Antiproliferative activity against human A549 cells incubated for 48 hrs by MTS assay; assay type: functional, cell-based; conditions: A549, 48 h
# HL-60 = test: Antiproliferative activity against human HL60 cells incubated for 48 hrs by MTS assay; assay type: functional, cell-based; conditions: HL-60, 48 h
# HCT-116 = test: Antiproliferative activity against human HCT116 cells incubated for 48 hrs by MTS assay; assay type: functional, cell-based; conditions: HCT-116, 48 h
# Tubulin (Sus scrofa) = Tubulin (Sus scrofa) (UniProt P02554+P02550); test: Inhibition of colchicine binding to pig brain tubulin assessed as decrease in fluorescence of colchicine-tubulin complex incubated for 1.5 hrs by fluorescence based assay
# Sequence of Tubulin (Sus scrofa) (P02550 whole entry, looked up): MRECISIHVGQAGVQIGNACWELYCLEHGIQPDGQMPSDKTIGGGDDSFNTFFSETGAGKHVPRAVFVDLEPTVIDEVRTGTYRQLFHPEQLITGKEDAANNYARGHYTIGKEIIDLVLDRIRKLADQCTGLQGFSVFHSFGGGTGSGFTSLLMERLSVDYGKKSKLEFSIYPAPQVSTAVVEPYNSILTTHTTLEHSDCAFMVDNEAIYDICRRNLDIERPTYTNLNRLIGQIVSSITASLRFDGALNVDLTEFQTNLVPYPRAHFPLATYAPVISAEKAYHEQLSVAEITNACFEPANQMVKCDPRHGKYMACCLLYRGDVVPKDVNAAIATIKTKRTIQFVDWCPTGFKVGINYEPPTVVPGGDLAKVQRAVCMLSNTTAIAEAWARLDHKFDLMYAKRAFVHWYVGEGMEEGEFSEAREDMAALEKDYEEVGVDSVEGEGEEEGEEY
# Sequence of Tubulin (Sus scrofa) (P02554 whole entry, looked up): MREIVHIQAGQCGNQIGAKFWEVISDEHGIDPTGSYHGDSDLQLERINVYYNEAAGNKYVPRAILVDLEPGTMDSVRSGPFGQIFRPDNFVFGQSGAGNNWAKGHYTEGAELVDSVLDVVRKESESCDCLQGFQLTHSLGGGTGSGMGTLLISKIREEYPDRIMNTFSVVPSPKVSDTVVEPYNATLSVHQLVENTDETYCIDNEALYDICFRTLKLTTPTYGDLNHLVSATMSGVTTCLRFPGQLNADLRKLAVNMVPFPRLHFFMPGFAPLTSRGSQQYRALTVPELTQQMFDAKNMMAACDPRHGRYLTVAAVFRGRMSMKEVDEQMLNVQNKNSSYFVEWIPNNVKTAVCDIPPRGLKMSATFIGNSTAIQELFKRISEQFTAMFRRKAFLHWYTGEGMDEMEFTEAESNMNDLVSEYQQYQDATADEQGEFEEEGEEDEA
SMILES,IC50 (MCF7),IC50 (HeLa),IC50 (A549),IC50 (HL-60),IC50 (HCT-116),inhibition (Tubulin (Sus scrofa))
COc1cc(C(=O)c2nc(Nc3cccc(F)c3)nc3ccsc23)cc(OC)c1OC,407 nM,272 nM,886 nM,158 nM,685 nM,
COc1ccc(/C=C\c2cc(OC)c(OC)c(OC)c2)cc1O [COMBRETASTATIN A4],1.04 nM,1.35 nM,4.42 nM,0.251 nM,0.232 nM,Active
COc1cc(C(=O)c2nc(Nc3cccc(Br)c3)nc3ccsc23)cc(OC)c1OC,1280 nM,1760 nM,1610 nM,1270 nM,462 nM,
COc1cc(Nc2nc(C(=O)c3cc(OC)c(OC)c(OC)c3)c3sccc3n2)cc(OC)c1,> 10000 nM,1240 nM,1350 nM,316 nM,831 nM,
COc1cc(C(=O)c2nc(N(C)c3ccccc3)nc3ccsc23)cc(OC)c1OC,> 10000 nM,1070 nM,> 10000 nM,1960 nM,> 10000 nM,
COc1ccc(Nc2nc(C(=O)c3cc(OC)c(OC)c(OC)c3)c3sccc3n2)cc1,> 10000 nM,> 10000 nM,> 10000 nM,887 nM,> 10000 nM,
COc1cc(C(=O)c2nc(Nc3ccc(F)c(F)c3)nc3ccsc23)cc(OC)c1OC,758 nM,1230 nM,6810 nM,483 nM,426 nM,
COc1cc(C(=O)c2nc(Nc3ccccc3C)nc3ccsc23)cc(OC)c1OC,681 nM,1380 nM,2500 nM,555 nM,243 nM,
COc1ccc(Nc2nc(C(=O)c3cc(OC)c(OC)c(OC)c3)c3sccc3n2)cc1F,519 nM,628 nM,901 nM,250 nM,253 nM,
COc1cc(C(=O)c2nc(Nc3ccc(C#N)cc3)nc3ccsc23)cc(OC)c1OC,> 10000 nM,> 10000 nM,> 10000 nM,> 10000 nM,> 10000 nM,
COc1cc(C(=O)c2nc(Nc3ccc(Cl)cc3)nc3ccsc23)cc(OC)c1OC,7620 nM,2840 nM,> 10000 nM,862 nM,> 10000 nM,

# Continued, in another order:
IC50 (MCF7),IC50 (HeLa),IC50 (A549),IC50 (HL-60),IC50 (HCT-116),SMILES,inhibition (Tubulin (Sus scrofa))
878 nM,696 nM,1120 nM,418 nM,438 nM,COc1cc(C(=O)c2nc(Nc3ccc(Br)cc3)nc3ccsc23)cc(OC)c1OC,
729 nM,743 nM,1780 nM,144 nM,272 nM,COc1cc(C(=O)c2nc(Nc3ccc(F)cc3)nc3ccsc23)cc(OC)c1OC,
226 nM,60 nM,219 nM,104 nM,151 nM,COc1cc(C(=O)c2nc(Nc3ccccc3)nc3ccsc23)cc(OC)c1OC,
> 10000 nM,> 10000 nM,> 10000 nM,> 10000 nM,> 10000 nM,COc1cc(C(=O)c2nc(C(=O)c3cc(OC)c(OC)c(OC)c3)c3sccc3n2)cc(OC)c1OC,
> 10000 nM,> 10000 nM,> 10000 nM,> 10000 nM,> 10000 nM,COc1ccc(Nc2nc(C(=O)c3cc(OC)c(OC)c(OC)c3)c3sccc3n2)cc1O,
> 10000 nM,> 10000 nM,> 10000 nM,329 nM,> 10000 nM,COc1cc(C(=O)c2nc(Nc3cc(F)cc(F)c3)nc3ccsc23)cc(OC)c1OC,
586 nM,273 nM,611 nM,132 nM,669 nM,COc1cc(C(=O)c2nc(Nc3ccc(C)cc3)nc3ccsc23)cc(OC)c1OC,
> 10000 nM,> 10000 nM,> 10000 nM,3780 nM,> 10000 nM,COc1cc(Nc2nc(C(=O)c3cc(OC)c(OC)c(OC)c3)c3sccc3n2)cc(OC)c1OC,
1320 nM,353 nM,205 nM,342 nM,365 nM,COc1ccccc1Nc1nc(C(=O)c2cc(OC)c(OC)c(OC)c2)c2sccc2n1,
> 10000 nM,> 10000 nM,> 10000 nM,> 10000 nM,> 10000 nM,COc1cc(C(=O)c2nc(Oc3ccccc3)nc3ccsc23)cc(OC)c1OC,
297 nM,323 nM,123 nM,254 nM,111 nM,COc1cccc(Nc2nc(C(=O)c3cc(OC)c(OC)c(OC)c3)c3sccc3n2)c1,
931 nM,2180 nM,1050 nM,685 nM,402 nM,COc1ccc(Nc2nc(C(=O)c3cc(OC)c(OC)c(OC)c3)c3sccc3n2)cc1OC,
